According to US9969747B2 (Constellation Pharmaceuticals, Inc., priority 2014, dated 2018):
Where “and” joins values, the source holds several entries; their conditions need not be identical. Identical values can stand only once. Like-named read-outs stand apart in the source and are kept apart here.

Key:
[1] = Oral pharmacokinetics in male Sprague Dawley rats, suspension in 0.5% Methylcellulose; assay type: in vivo; details: for Plasma concentration, PO1: group value
[2] = Oral pharmacokinetics in male beagle dogs, crossover, suspension in 0.5% MC; assay type: in vivo; details: male beagle dog
Procedure: The objective was to compare the pharmacokinetic profiles of both forms in dogs using a crossover study design in which the same dogs were dosed sequentially with amorphous and monohydrate crystalline Form A with a washout period in between.

[3] = Gravimetric moisture sorption; assay type: physicochemical; details: over a relative humidity range of 5 to 95%
From the text: This level of stability is rare for many pharmaceutical compounds, and particularly for hydrated forms since most are typically stable only at lower threshold values. Typically, one would expect to see stability of a monohydrate stoichiometry over a more limited range, e.g., between 30 to 70%. At relative humidity levels below 30% a compound would still retain water, but the stoichiometric ratio would be less than that of a true monohydrate. Likewise, at high relative humidity, the stoichiometric ratio of water to compound would exceed that of a monohydrate.

[4] = Solubility and form stability in deionized water; assay type: physicochemical; details: deionized water
[5] = 60 mg/Kg single oral dose, 60 mg/kg
[6] = 60 mg/Kg single oral dose, 1 h, 60 mg/kg
[7] = 60 mg/Kg single oral dose, 2 h, 60 mg/kg
[8] = 60 mg/Kg single oral dose, 4 h, 60 mg/kg
[9] = 60 mg/Kg single oral dose, 8 h, 60 mg/kg
[10] = 2 mg/Kg single oral dose, 2 mg/kg

With `Cc1noc2c1-c1ccccc1C(c1ccc(Cl)cc1)=N[C@H]2CC(N)=O` [monohydrate Form A, 2-((4S)-6-(4-chlorophenyl)-1-methyl-4H-benzo[c]isoxazolo[4,5-e]azepin-4-yl)acetamide] the Plasma concentration, individual rats ([1]; 10 mg/Kg single oral dose, 299 s, 10 mg/kg) was 51.3 ng/mL and 182 ng/mL and 89.2 ng/mL and 191 ng/mL and 166 ng/mL and 31.5 ng/mL, the Plasma concentration, individual rats ([1]; 10 mg/Kg single oral dose, 1.00 h, 10 mg/kg) was 1940 ng/mL and 1620 ng/mL and 1510 ng/mL and 2300 ng/mL and 1790 ng/mL and 1600 ng/mL and the Plasma concentration, PO1 ([1]; 10 mg/Kg single oral dose, 1.00 h) was 1790 ng/mL. The Plasma concentration, individual rats ([1]; 10 mg/Kg single oral dose, 2.00 h, 10 mg/kg) was 1400 ng/mL and 1320 ng/mL and 1420 ng/mL and 1650 ng/mL and 950 ng/mL and 1000 ng/mL, the Plasma concentration, PO1 ([1]; 10 mg/Kg single oral dose, 2.00 h) was 1290 ng/mL and the Plasma concentration, individual rats ([1]; 10 mg/Kg single oral dose, 4.00 h, 10 mg/kg) was 611 ng/mL and 349 ng/mL and 569 ng/mL and 544 ng/mL and 166 ng/mL and 255 ng/mL. The Plasma concentration, PO1 ([1]; 10 mg/Kg single oral dose, 4.00 h) was 416 ng/mL, the Plasma concentration, individual rats ([1]; 10 mg/Kg single oral dose, 8.00 h, 10 mg/kg) was 56.3 ng/mL and 18.1 ng/mL and 32.4 ng/mL and 13.6 ng/mL and 2.93 ng/mL and 18.2 ng/mL and the Plasma concentration, PO1 ([1]; 10 mg/Kg single oral dose, 8.00 h) was 23.6 ng/mL. It also gave a Tmax ([1]; 60 mg/Kg single oral dose) of 2.0 h, an AUC0-last [1, 5] of 52800 ng·h/mL and a Cmax [1, 5] of 7197 ng/mL. For the same molecule, the Plasma concentration, Mean ([1]; 60 mg/Kg single oral dose, 299 s) was 304 ng/mL, the Plasma concentration, individual rats ([1]; 60 mg/Kg single oral dose, 299 s, 60 mg/kg) was 183 ng/mL and 407 ng/mL and 512 ng/mL and 158 ng/mL and 391 ng/mL and 172 ng/mL and the Plasma concentration, Mean ([1]; 60 mg/Kg single oral dose, 0.250 h) was 2150 ng/mL. For the same molecule, the Plasma concentration, individual rats ([1]; 60 mg/Kg single oral dose, 0.250 h, 60 mg/kg) was 1830 ng/mL and 2770 ng/mL and 2670 ng/mL and 2150 ng/mL and 2050 ng/mL and 1420 ng/mL, the Plasma concentration, Mean ([1]; 60 mg/Kg single oral dose, 0.500 h) was 4060 ng/mL and the Plasma concentration, individual rats ([1]; 60 mg/Kg single oral dose, 0.500 h, 60 mg/kg) was 3610 ng/mL and 5250 ng/mL and 3790 ng/mL and 4120 ng/mL and 4050 ng/mL and 3550 ng/mL. The Plasma concentration, Mean [1, 6] was 5530 ng/mL, the Plasma concentration, individual rats [1, 6] was 5290 ng/mL and 6110 ng/mL and 6840 ng/mL and 5440 ng/mL and 4740 ng/mL and 4770 ng/mL and the Plasma concentration, Mean [1, 7] was 7200 ng/mL. The Plasma concentration, individual rats [1, 7] was 8220 ng/mL and 7490 ng/mL and 6700 ng/mL and 8330 ng/mL and 6850 ng/mL and 5590 ng/mL, the Plasma concentration, Mean [1, 8] was 6070 ng/mL and the Plasma concentration, individual rats [1, 8] was 7740 ng/mL and 4850 ng/mL and 5160 ng/mL and 8350 ng/mL and 5690 ng/mL and 4650 ng/mL. The Plasma concentration, Mean [1, 9] was 1760 ng/mL, the Plasma concentration, individual rats [1, 9] was 3050 ng/mL and 805 ng/mL and 1220 ng/mL and 1960 ng/mL and 2320 ng/mL and 1200 ng/mL and the “Plasma concentration, individual rats” value ([1]; 60 mg/Kg single oral dose, 24 h, 60 mg/kg) was “BQL (5×) and 1.04”. For the same molecule, the AUC(0-t) ([1]; male, Sprague Dawley, rat, plasma, po, 10 mg/kg, 10 mg/Kg single oral dose) was 5500 ng·h/mL, the Cmax ([1]; male, Sprague Dawley, rat, plasma, po, 10 mg/kg, 10 mg/Kg single oral dose, read-out: Cmax) was 1790 ng/mL and the Inter-individual differences ([1]; oral, 10 and 60 mg/Kg) was “Low inter-individual differences”. For the same molecule, the “Dose proportionality of Cmax and AUC” value ([1]; oral, dose increases from 10 to 60 mg/Kg) was “increase slightly more than proportionally with the dose”, the Tmax ([1]; rat, plasma, 10 mg/Kg single oral dose, read-out: Tmax) was 1 h and the Inter-individual variability ([2]; 2 mg/Kg oral, crossover) was “low inter-individual variability”. The “Tmax, Mean” value ([2]; 2 mg/Kg single oral dose) was 1.50 h, the Plasma concentration, Mean ([2]; 2 mg/Kg single oral dose, 0.25 h, 2 mg/kg) was 100 ng/mL and the Plasma concentration, Mean ([2]; 2 mg/Kg single oral dose, 0.5 h, 2 mg/kg) was 330 ng/mL. It also gave a Plasma concentration, Mean ([2]; 2 mg/Kg single oral dose, 1 h, 2 mg/kg) of 522 ng/mL, a Plasma concentration, Mean ([2]; 2 mg/Kg single oral dose, 2 h, 2 mg/kg) of 512 ng/mL and a Plasma concentration, Mean ([2]; 2 mg/Kg single oral dose, 4 h, 2 mg/kg) of 435 ng/mL. For the same molecule, the Plasma concentration, Mean ([2]; 2 mg/Kg single oral dose, 6 h, 2 mg/kg) was 278 ng/mL, the Plasma concentration, Mean ([2]; 2 mg/Kg single oral dose, 8 h, 2 mg/kg) was 214 ng/mL and the Plasma concentration, Mean ([2]; 2 mg/Kg single oral dose, 12 h, 2 mg/kg) was 151 ng/mL. The Plasma concentration, Mean ([2]; 2 mg/Kg single oral dose, 24 h, 2 mg/kg) was 67.1 ng/mL, the “AUC0-inf, Mean” value [2, 10] was 5853 ng·h/mL and the “AUC0-inf, individual dogs” value [2, 10] was 5350 ng·h/mL and 4540 ng·h/mL and 7490 ng·h/mL and 4980 ng·h/mL and 6220 ng·h/mL and 6540 ng·h/mL. The “AUC0-last, Mean” value [2, 10] was 4892 ng·h/mL, the “AUC0-last, individual dogs” value [2, 10] was 4650 ng·h/mL and 4040 ng·h/mL and 5850 ng·h/mL and 3960 ng·h/mL and 5390 ng·h/mL and 5460 ng·h/mL and the “Cmax, Mean” value [2, 10] was 536 ng/mL. The “Cmax, individual dogs” value [2, 10] was 542 ng/mL and 482 ng/mL and 615 ng/mL and 459 ng/mL and 549 ng/mL and 569 ng/mL, the “MRT0-last, Mean” value [2, 10] was 7.95 h and the “MRT0-last, individual dogs” value [2, 10] was 7.74 h and 7.34 h and 8.38 h and 8.01 h and 7.93 h and 8.32 h. For the same molecule, the “T1/2, Mean” value [2, 10] was 9.70 h, the “T1/2, individual dogs” value [2, 10] was 8.60 h and 8.14 h and 11.97 h and 11.58 h and 8.31 h and 9.57 h and the “Tmax, individual dogs” value [2, 10] was 2.00 h. The “Water content (monohydrate stoichiometry) in gravimetric moisture sorption” value [3] was “approximately 5%”, the “Stability of the form in deionized water” value [4] was “stable” and the solubility ([4]; water, thermodynamic from solid) was 4.5 µg/mL.
